Results published in paper PMC11032351, “Epigenetic modulation through BET bromodomain inhibitors as a novel therapeutic strategy for progranulin-deficient frontotemporal dementia” (Scientific Reports, 2024).

What was measured:
GRN mRNA = assay: qPCR of GRN mRNA in human NPCs (enhancer screen and follow-up); type: cell-based; details: 24 h; for increase of GRN mRNA: NPCs
Procedure: (§1) All compounds were purchased from commercial vendors. All compounds were made at 1000 × stocks in DMSO (Sigma Aldrich #D2438), except for sodium valproate, which was dissolved in ddH2O. NPCs and neurons were generated and maintained as described above. For treatment, the stock compounds were diluted 1:1000 in NPC media (final DMSO concentration 0.1%), which was then applied to confluent NPCs or 18-day differentiated neurons derived from confluent NPC cultures for indicated time periods.
RNA was generated from each well of a 6-well treated plate of NPCs or neurons. First, media from each well was aspirated, and washed with 1 mL of dPBS. Wells were then lysed with 1 mL TRIzol Reagent (ThermoFisher #11,596,026). Wells were then incubated at room temperature for 5 min, and then RNA was extracted using the DirectZol RNA MiniPrep Kit (Zymo Research #R2052). RNA was stored at − 80 °C until further use. cDNA was generated using the High-Capacity cDNA synthesis Kit with RNase inhibitor (ThermoFisher #4,368,814) using 1000–1200 ng RNA per reaction. cDNA was either used immediately or stored at -20 °C until use, where it was then diluted 1:4 with DNase/RNase-free water (Invitrogen #10,977–015).
qPCR was conducted using the Roche 480 Light Cycler in a 384-well plate. To each well was added 5 μL of TaqMan 2X Gene Expression Master Mix (ThermoFisher #4,369,510), 0.5 μL of 20X TaqMan primer probe (ThermoFisher, GRN: Hs00963707_g1, GAPDH: Cat.#432924E), 0.5 μL of DNase/RNase-free H2O, and 4 μL of above diluted cDNA. Results were normalized to GAPDH, and replicate mean values and standard error of the mean are reported.

PGRN protein levels [1] = assay: Immunoblotting of PGRN protein in human NPCs; type: cell-based; details: 24 h, immunoblot
Procedure: as §1
(§2) Cell pellets were collected from each well of a 6-well plate (or lysed directly in-well for 24-well plates), lysed in radio immunoprecipitation assay (RIPA) buffer (Boston BioProducts #BP-115) with EDTA-free protease inhibitors (Sigma Aldrich #4,693,159,001) and a phosphatase inhibitor cocktail (Sigma Aldrich #P5726) and nutated at 4 °C for 15–30 min. Lysates were clarified via centrifugation at > 14,000 rcf at 4 °C for > 10 min and the supernatants were collected. Protein quantification was done with the Pierce bicinchoninic assay (BCA) (Thermo Fisher #23,227). Lysates were then stored between − 20 and − 80 °C until ready for use. […]
(§3) In probing for PGRN, proteins were separated on NuPAGE 4–12% Bis–Tris gels (ThermoFisher #NP0335BOX) in MOPS SDS Running buffer (ThermoFisher #NP0001). […] Protein quantification was done with ImageJ and normalized to GAPDH.

PGRN protein levels [2] = assay: Immunoblotting of PGRN protein in 18-day differentiated neurons; type: cell-based, human; details: 24 hours, immunoblot
Procedure: NPCs were seeded at 0.5 × 10^6 cells per well in a poly-ornithine/laminin single coated 6-well plate in 2 mL NPC media with above growth factors. Cells were allowed to incubate at 37 °C for 48–72 h to grow to confluency. After reaching confluency, the media was aspirated, and cells were incubated in NPC media without growth factors for the indicated timeframes, with media changes every 3–4 days.
All compounds were purchased from commercial vendors. All compounds were made at 1000 × stocks in DMSO (Sigma Aldrich #D2438), except for sodium valproate, which was dissolved in ddH2O. NPCs and neurons were generated and maintained as described above. […]
as §2, with “Lysates were clarified via centrifugation at > 14,000 rcf at 4 °C for > 10 min and the supernatants were collected.” left out
as §3

PGRN protein levels [3] = assay: PGRN quantification (Jess) in GRN R493X/+ NPCs; type: cell-based, human; details: 24 h
Procedure: (§4) PGRN capillary gel electrophoresis experiments were performed using Jess (Bio-Techne) and data were processed and analyzed using Compass for Simple Western software (version 6.0). Runs were conducted using EZ Standard Pack 1 12–230 kDa (Bio-Techne PS-ST01EZ-8), 12–230 kDa pre-filled plates (PS-PP03), 12–230 kDa separation module (SMW004), anti-rabbit HRP detection (DM-001), RePlex (RP-001), and total protein detection modules (DM-TP01, biotin labeling reagent 042-973) according to the manufacturer’s instructions, and with anti-PGRN primary (Abcam ab208777) diluted 1:50 in milk-free antibody dilution buffer (043–524). The following run settings were used for each experiment: separation time: 25 min, separation voltage: 375 V, RePlex purge time: 30 min, biotin labeling time: 30 min, antibody diluent time: 5 min, primary antibody time: 30 min, secondary antibody time: 30 min, total protein HRP time: 30 min. All intensity quantifications are normalized to the total protein assay quantification unless otherwise indicated.
(§5) For GRN^R493^X/+ NPCs, cells were grown to confluency in 6-well plates according to the above NPC culturing procedure. To each well was directly added 2 µL of 100 µM panobinostat, […], or DMSO only to produce final in-well concentrations of 100 nM or 1 µM, respectively (0.1% DMSO final concentration). […]

PGRN protein levels [4] = assay: PGRN quantification (Jess) in GRN R493X/+ 14-day differentiated neurons; type: cell-based, human; details: GRN R493X/+ 14-day growth factor differentiated neurons, 24 h
Procedure: as §4, §5

PGRN-Luc = assay: HMC3 PGRN-luciferase reporter assay; type: cell-based, human; details: HMC3 PGRN-Luc cells, 20 h
Procedure: HMC3 PGRN-Luc cells were trypsinized from confluent T-75 flasks and re-suspended in HMC-3 media at 150,000–200,000 cells/mL. 30 µL of cell suspension was then seeded onto each well of black, 384-well clear-bottom plates (Corning 3712) using the Multidrop Combi (Thermo Fisher). Cells were allowed to adhere to plates in the incubator at 37 °C/5% CO2 for 6–8 h. After 6–8 h, compounds were added to each well using the D300e (Tecan) compound dispenser, and all wells were DMSO-normalized (0.3%). Cells were allowed to incubate with compounds for indicated timeframes.
Plates were removed from the incubator and allowed to cool to RT. 15 µL of media was removed from each well using a multichannel pipette and added to separate Corning 3712 plates for a read of “secreted” PGRN. To both the media-containing plates as well as the cell-containing plates (with 15 µL media remaining) is then added 15 µL of active luminescence reagent (Thermo 18,636) which was generated according to manufacturer’s instructions. Plates were allowed to nutate at RT for 15 min prior to reading using the EnVision (PerkinElmer). For calculation of the internal PGRN-Luc signal, the secreted signal (15 µL media) was subtracted from the signal of the cell-containing plates (with 15 µL media remaining). For “total” PGRN-Luc signal, a sample of media was not aliquoted into a separate plate, and instead, 30 µL of active luminescence reagent was added directly to each well.
For the mivebresib and panobinostat time-course experiment, the above procedure was followed, with the exception that cells were seeded at 66,600 cells/mL in 30 µL media, and allowed to grow overnight prior to compound addition for the indicated timeframes.

COc1ccccc1S(=O)(=O)Nc1ccc2c(c1)CN(C)C(=O)N2 [PFI-1]
increase of GRN mRNA (GRN mRNA; 10 µM): ~ 2.5 fold | PGRN protein levels (PGRN protein levels [1]; 10 µM): substantially increased PGRN protein levels | PGRN expression (PGRN protein levels [2]; 10 µM): can enhance PGRN expression

Cc1sc2c(c1C)C(c1ccc(Cl)cc1)=N[C@@H](CC(=O)OC(C)(C)C)c1nnc(C)n1-2 [(+)-JQ1]
increase of GRN mRNA (GRN mRNA; 1 µM): ~ 2.5 fold | PGRN protein levels (PGRN protein levels [1]; 1 µM): substantially increased PGRN protein levels | PGRN expression (PGRN protein levels [2]; 1 µM): can enhance PGRN expression

Cc1[nH]c2ccccc2c1CCNCc1ccc(/C=C/C(=O)NO)cc1 [Panobinostat, panobinostat]
GRN Fold-change (Norm. to GAPDH) ± Std. Error (GRN mRNA; human NPCs, dose 1 µM, relative to DMSO): 3.08 ± 0.35 | PGRN protein levels (PGRN protein levels [3]): rescues PGRN haploinsufficiency | PGRN protein levels (PGRN protein levels [4]): rescues PGRN haploinsufficiency | enhancement of internal PGRN-Luc signal (PGRN-Luc): able to enhance both internal and secreted PGRN at sub-µM concentrations | enhancement of secreted PGRN-Luc signal (PGRN-Luc): able to enhance both internal and secreted PGRN at sub-µM concentrations
